Test results taken from paper PMC11187126, “Structure and dynamics of the pyroglutamylated RF-amide peptide QRFP receptor GPR103” (Nature Communications, 2024).
Read-outs that look alike come from different tables or passages of the source. No end group written: not given here.

Target: T1, GPR103 Y214^5.38A (Homo sapiens, UniProt Q96P65, Y214A)
T1 construct: we used human full-length QRFPR-encoding plasmids; expressed in transfected cells; host or cells: HEK293 cells, pCAGGS vector
T1 sequence (Q96P65 1-431 Y214A): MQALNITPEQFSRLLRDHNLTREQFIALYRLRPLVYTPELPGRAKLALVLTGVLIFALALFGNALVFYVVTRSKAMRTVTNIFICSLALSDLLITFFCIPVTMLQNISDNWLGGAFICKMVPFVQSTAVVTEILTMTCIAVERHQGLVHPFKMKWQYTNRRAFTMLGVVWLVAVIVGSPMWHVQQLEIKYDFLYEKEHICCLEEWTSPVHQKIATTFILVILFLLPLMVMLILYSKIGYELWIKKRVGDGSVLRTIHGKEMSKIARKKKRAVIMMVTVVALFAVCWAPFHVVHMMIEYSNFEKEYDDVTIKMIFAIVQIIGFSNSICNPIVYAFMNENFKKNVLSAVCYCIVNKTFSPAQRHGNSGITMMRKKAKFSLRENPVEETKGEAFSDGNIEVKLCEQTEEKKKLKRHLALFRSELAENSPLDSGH
Assay: TGFα shedding assay; Exp. level WT (1:50)
Assay type: cell-based

## TSGPLGNLAEELNGYSRKKGGFSFRF-NH2 [QRFP26]
Exp. #1
  Emax: 18.32 % WT
Exp. #2
  Emax: 10.80 % WT
Exp. #3
  Emax: 19.27 % WT
mean, read-out: Emax
  Emax: 16.1%
N = 3
  EC50: 105 nM
N = 3, read-out: Emax
  Emax: 16.6 ± 2.2%
